In ChEMBL document CHEMBL3091331, “Aminothiazole-featured pirinixic acid derivatives as dual 5-lipoxygenase and microsomal prostaglandin E2 synthase-1 inhibitors with improved potency and efficiency in vivo” (J Med Chem, 2013):
Calls of active or inactive are those of the source. No cut-off for these calls is given here.

Key:
[1] = molecular target: T1, Polyunsaturated fatty acid lipoxygenase ALOX12 (Homo sapiens) (UniProt P18054); test: Inhibition of 12-lipoxygenase in human polymorphonuclear leukocytes using arachidonic acid as substrate assessed as remaining activity at 10 uM incubated 15 mins prior to substrate addition measured after 10 mins by HPLC analysis relative to control; type: cell-based
T1 sequence (whole entry): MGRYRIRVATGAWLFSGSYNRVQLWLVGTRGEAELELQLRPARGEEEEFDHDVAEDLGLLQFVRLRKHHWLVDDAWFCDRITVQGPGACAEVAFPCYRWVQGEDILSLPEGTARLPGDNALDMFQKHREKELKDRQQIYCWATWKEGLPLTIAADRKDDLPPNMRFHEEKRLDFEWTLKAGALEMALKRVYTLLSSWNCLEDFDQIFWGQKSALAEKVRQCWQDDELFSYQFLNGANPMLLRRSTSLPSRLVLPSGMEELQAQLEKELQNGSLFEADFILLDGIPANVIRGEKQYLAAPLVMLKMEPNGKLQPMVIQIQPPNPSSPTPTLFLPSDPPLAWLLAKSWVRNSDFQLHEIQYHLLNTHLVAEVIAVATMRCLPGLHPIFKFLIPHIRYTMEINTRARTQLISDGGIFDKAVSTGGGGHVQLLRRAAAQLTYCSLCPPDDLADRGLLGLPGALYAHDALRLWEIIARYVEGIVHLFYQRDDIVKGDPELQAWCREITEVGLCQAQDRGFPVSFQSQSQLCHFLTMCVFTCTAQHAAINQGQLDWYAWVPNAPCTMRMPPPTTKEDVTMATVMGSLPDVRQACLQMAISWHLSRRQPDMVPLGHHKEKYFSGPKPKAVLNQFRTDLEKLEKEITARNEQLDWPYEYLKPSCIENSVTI

[2] = Cytotoxicity against human polymorphonuclear leukocytes at 10 uM after 1 hr by light microscopic analysis
[3] = (§1) Inhibition of reactive oxygen species generation in fMLP-stimulated human polymorphonuclear leukocytes incubated for 15 mins prior to fMLP-challenge by fluorescence assay; type: functional
Homo sapiens = species on record: Homo sapiens; test: as §1; type: functional
[4] = molecular target: Mitogen-activated protein kinase 1 (Homo sapiens) (UniProt P28482); test: Inhibition of fMLP-mediated ERK2 phosphorylation in human polymorphonuclear leukocytes incubated for 15 mins prior to fMLP-challenge measured after 1.5 mins by SDS-PAGE analysis; type: cell-based
Mitogen-activated protein kinase 1 (Homo sapiens), sequence (P28482 whole entry): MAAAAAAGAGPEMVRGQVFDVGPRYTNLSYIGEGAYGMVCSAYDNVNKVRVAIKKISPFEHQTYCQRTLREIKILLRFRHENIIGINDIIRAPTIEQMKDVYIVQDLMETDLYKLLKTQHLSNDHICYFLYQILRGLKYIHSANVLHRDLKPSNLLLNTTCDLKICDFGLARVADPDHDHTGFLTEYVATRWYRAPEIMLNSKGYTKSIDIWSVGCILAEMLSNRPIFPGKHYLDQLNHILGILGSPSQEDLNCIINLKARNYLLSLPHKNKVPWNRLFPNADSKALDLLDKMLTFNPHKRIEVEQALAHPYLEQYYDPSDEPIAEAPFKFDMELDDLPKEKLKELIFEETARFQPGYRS

[5] = molecular target: T2, Prostaglandin G/H synthase 1 (Ovis aries) (UniProt P05979); test: Inhibition of ovine COX1 using arachidonic acid as substrate at 10 uM incubated 5 mins prior to substrate addition measured after 5 mins by HPLC analysis
T2 sequence (whole entry): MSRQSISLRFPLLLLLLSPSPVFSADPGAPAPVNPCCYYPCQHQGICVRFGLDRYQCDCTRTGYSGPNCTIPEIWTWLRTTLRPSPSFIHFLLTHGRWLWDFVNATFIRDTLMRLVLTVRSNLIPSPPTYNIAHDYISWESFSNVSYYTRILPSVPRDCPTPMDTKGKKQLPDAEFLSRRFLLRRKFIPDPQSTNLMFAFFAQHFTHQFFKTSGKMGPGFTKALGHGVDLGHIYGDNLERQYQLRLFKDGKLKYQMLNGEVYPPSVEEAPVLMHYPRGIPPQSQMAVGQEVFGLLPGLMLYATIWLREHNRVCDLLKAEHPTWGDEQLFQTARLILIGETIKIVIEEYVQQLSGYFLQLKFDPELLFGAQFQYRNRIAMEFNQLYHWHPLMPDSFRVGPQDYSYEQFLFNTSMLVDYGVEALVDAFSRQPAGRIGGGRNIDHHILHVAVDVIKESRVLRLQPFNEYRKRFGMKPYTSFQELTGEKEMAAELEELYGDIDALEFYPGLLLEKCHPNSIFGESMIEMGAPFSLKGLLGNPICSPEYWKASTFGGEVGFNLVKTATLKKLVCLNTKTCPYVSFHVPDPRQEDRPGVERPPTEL

[6] = molecular target: MAP kinase p38 (Homo sapiens) (UniProt O15264+Q15759+Q16539+P53778); test: Inhibition of fMLP-mediated p38 MAPK phosphorylation in human polymorphonuclear leukocytes incubated for 15 mins prior to fMLP-challenge measured after 1.5 mins by SDS-PAGE analysis; type: cell-based
[7] = molecular target: T3, Polyunsaturated fatty acid 5-lipoxygenase (Homo sapiens, UniProt P09917); test: Inhibition of human recombinant 5-lipoxygenase expressed in Escherichia coli BL21 using arachidonic acid as substrate incubated 5 to 10 mins prior to substrate addition measured after 10 mins by HPLC analysis
T3 sequence (P09917 whole entry): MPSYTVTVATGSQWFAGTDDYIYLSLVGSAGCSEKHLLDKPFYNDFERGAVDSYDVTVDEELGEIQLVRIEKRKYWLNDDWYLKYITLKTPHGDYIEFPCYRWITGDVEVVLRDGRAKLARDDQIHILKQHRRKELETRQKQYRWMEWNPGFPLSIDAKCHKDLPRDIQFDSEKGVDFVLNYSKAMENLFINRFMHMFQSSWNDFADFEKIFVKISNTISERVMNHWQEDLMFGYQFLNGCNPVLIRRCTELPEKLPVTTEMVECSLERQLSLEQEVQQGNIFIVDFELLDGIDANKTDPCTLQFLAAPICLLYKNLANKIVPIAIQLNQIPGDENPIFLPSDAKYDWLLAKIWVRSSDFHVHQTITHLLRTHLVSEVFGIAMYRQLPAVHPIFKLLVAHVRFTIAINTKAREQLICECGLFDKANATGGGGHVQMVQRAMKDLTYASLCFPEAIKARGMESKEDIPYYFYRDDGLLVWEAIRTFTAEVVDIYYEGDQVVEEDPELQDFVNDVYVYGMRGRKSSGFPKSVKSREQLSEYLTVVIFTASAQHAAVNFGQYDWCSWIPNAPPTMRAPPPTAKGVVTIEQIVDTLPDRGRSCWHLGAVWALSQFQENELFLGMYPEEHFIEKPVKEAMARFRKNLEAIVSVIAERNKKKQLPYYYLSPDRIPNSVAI

Mus musculus [8] = test: Antiinflammatory activity in CD-1 mouse peritonitis model assessed as reduction in myeloperoxidase activity at 10 mg/kg, ip administered 30 mins prior to zymosan-challenge measured after 4 hrs by spectrophotometry relative to vehicle-treated control; type: functional; settings: CD-1, ip, route intraperitoneal
Mus musculus [9] = test: Reduction of LTC4 formation in CD-1 mouse peritonitis model at 10 mg/kg, ip administered 30 mins prior to zymosan-challenge measured after 30 mins by EIA relative to vehicle-treated control; type: functional; settings: CD-1, ip, route intraperitoneal
Mus musculus [10] = test: Antiinflammatory activity in CD-1 mouse peritonitis model assessed as reduction in neutrophil infiltration at 10 mg/kg, ip administered 30 mins prior to zymosan-challenge measured after 4 hrs by spectrophotometry relative to vehicle-treated control; type: functional; settings: CD-1, ip, route intraperitoneal
Mus musculus [11] = test: Antiinflammatory activity in CD-1 mouse peritonitis model assessed as reduction in vascular permeability at 10 mg/kg, ip administered 30 mins prior to zymosan-challenge measured after 4 hrs relative to vehicle-treated control; type: functional; settings: CD-1, ip, route intraperitoneal
Mus musculus [12] = test: Reduction of 6-keto […] formation in CD-1 mouse peritonitis model at 10 mg/kg, ip administered 30 mins prior to zymosan-challenge measured after 4 hrs by EIA (reference value: 3.89 +/- 0.58 ng/ml); type: functional, organism-based; design: dose 10 mg/kg

Activity [1]: 168%
IC50 [3]: 3000 nM
inhibition [4]: inactive
inhibition [5]: 39%
inhibition [6]: inactive
IC50 [7]: 300 nM
Compound: CCCCCCC(Sc1nc(Cl)cc(Nc2nc(-c3ccc4ccccc4c3)cs2)n1)C(=O)O (racemic)
Activity [2]: Non-toxic
inhibition (Homo sapiens): Dose-dependent effect
inhibition in vivo at 10 mg/kg (Mus musculus [8]): 23%
inhibition in vivo at 10 mg/kg (Mus musculus [9]): 84%
inhibition in vivo at 10 mg/kg (Mus musculus [10]): 45%
inhibition in vivo at 10 mg/kg (Mus musculus [11]): 57%
inhibition (Mus musculus [12]): inactive
